The record followed here is patent publication US9707233B2, “Heterocyclylamines as PI3K inhibitors” (Incyte Corporation, priority 2011, dated 2017).

In the test the target is PI3Kδ (p110δ/p85α) (Homo sapiens (Human), UniProt O00329). In words: PI3Kδ scintillation proximity assay (Example A3). The format is biochemical. The settings on record: 20 μM ATP, 20 μM PIP2, 4 nM PI3Kδ; read-out: PI3Kδ SPA IC50. An outline of the steps: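 IC50 derived by fitting percent control activity against log inhibitor concentration. Radiolabelled product was measured by scintillation counting on WGA SPA beads after overnight shaking. The kinase reaction used 4 nM p110δ/p85α, 20 μM ATP (with [γ-33P]ATP) and 20 μM PIP2 at pH 6.7 and room temperature, with 0.5% DMSO final.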
PI3Kδ (p110δ/p85α), sequence (O00329 whole entry): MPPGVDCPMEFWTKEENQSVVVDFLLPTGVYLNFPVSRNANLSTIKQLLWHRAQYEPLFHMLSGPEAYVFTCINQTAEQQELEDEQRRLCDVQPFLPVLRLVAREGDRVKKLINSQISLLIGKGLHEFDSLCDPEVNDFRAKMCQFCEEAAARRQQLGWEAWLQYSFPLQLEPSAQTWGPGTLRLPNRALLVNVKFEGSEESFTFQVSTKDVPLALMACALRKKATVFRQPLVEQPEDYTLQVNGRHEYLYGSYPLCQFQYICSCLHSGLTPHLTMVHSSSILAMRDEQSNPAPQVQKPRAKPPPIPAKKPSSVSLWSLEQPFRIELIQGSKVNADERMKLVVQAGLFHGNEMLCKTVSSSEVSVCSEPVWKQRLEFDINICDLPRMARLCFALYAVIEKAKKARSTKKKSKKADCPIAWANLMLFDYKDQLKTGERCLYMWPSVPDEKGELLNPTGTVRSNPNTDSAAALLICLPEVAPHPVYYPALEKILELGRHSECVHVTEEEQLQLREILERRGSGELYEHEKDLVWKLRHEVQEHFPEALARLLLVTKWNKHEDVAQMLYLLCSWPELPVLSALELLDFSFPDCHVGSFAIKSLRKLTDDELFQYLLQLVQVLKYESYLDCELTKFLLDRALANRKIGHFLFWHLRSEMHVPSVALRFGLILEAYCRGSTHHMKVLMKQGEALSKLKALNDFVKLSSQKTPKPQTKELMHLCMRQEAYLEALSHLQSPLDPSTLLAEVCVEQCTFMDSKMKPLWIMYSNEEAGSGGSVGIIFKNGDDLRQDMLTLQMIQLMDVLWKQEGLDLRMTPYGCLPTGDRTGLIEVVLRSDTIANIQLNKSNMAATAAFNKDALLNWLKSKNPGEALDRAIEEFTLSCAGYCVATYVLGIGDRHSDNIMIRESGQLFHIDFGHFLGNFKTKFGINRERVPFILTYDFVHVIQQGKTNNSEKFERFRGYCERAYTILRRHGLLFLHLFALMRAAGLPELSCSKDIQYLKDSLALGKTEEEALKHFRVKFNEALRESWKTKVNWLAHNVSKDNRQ
PI3Kδ (p110δ/p85α), sequence (P27986 whole entry partner): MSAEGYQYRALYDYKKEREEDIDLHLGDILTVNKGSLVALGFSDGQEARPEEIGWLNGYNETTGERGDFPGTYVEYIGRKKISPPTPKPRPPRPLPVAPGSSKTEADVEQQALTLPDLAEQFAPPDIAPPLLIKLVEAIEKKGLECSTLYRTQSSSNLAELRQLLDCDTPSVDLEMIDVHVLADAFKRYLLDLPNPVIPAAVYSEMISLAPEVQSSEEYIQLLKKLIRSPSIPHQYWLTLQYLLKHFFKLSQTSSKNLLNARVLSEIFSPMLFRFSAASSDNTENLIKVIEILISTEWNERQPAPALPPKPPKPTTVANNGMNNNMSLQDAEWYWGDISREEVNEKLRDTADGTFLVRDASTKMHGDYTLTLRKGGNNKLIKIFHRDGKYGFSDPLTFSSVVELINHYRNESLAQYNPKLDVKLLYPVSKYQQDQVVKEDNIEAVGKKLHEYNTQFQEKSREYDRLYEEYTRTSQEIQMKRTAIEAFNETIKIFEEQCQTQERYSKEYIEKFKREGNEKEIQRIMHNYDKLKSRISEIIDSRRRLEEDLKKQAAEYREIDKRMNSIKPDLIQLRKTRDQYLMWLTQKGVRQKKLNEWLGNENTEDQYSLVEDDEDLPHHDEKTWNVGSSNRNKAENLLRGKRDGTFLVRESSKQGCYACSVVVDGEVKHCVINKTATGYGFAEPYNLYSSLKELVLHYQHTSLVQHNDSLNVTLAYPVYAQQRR

As usually defined, the IC50 is the point on the concentration scale where inhibition reaches its midpoint. As for `CCOc1c(C(C)n2nc(C)c3c(N)ncnc32)cc(Cl)c(F)c1C1CN(CC)C1` (racemic) [Example 146, 1-{1-[5-Chloro-2-ethoxy-3-(1-ethylazetidin-3-yl)-4-fluorophenyl]ethyl}-3-methyl-1H-pyrazolo[3,4-d]pyrimidin-4-amine], the IC50 was at most 10 nM. Next, `CCOc1c(C(C)n2nc(C)c3c(N)ncnc32)cc(Cl)c(C#N)c1C1CN(C(COC)COC)C1` (single isomer, unassigned) [Example 226, 4-[1-(4-Amino-3-methyl-1H-pyrazolo[3,4-d]pyrimidin-1-yl)ethyl]-6-chloro-3-ethoxy-2-{1-[2-methoxy-1-(methoxymethyl)ethyl]azetidin-3-yl}benzonitrile]: at most 10 nM; `CNC(=O)c1ccc(-c2c(C)c(Cl)cc(C(C)n3ccc(=O)c4c(N)ncnc43)c2OC)cn1` (racemic) [Example 33, 5-{3-[1-(4-amino-5-oxopyrido[2,3-d]pyrimidin-8(5H)-yl)ethyl]-5-chloro-2-methoxy-6-methylphenyl}-N-methylpyridine-2-carboxamide bis(trifluoroacetate)]: at most 10 nM. With `COc1c(C(C)n2nc(C)c3c(N)ncnc32)cc(Cl)c(C)c1-c1ccnc(N(C)C)c1` (single isomer, unassigned) [Example 186, 1-(1-(5-chloro-3-(2-(dimethylamino)pyridin-4-yl)-2-methoxy-4-methylphenyl)ethyl)-3-methyl-1H-pyrazolo[3,4-d]pyrimidin-4-amine] the figure was at most 10 nM. With `CCOc1c(C(C)n2nc(C)c3c(N)ncnc32)cc(C#N)c(C)c1-c1cnn(C)c1` (single isomer, unassigned) [Example 210, 5-[1-(4-Amino-3-methyl-1H-pyrazolo[3,4-d]pyrimidin-1-yl)ethyl]-4-ethoxy-2-methyl-3-(1-methyl-1H-pyrazol-4-yl)benzonitrile] the figure was at most 10 nM. Take `COc1c(C(C)n2nc(C)c3c(N)ncnc32)cc(Cl)c(C)c1C1CN(CC(N)=O)C1` (stereo not shown) [Example 111, 2-(3-{3-[1-(4-Amino-3-methyl-1H-pyrazolo[3,4-d]pyrimidin-1-yl)ethyl]-5-chloro-2-methoxy-6-methylphenyl}azetidin-1-yl)acetamide]: the IC50 was at most 10 nM. Next, `CCOc1c(C(C)n2nc(C)c3c(N)ncnc32)cc(Cl)c(C#N)c1C1CN(C(=O)OC)C1` (single isomer, unassigned) [Example 252, Methyl 3-{3-[1-(4-amino-3-methyl-1H-pyrazolo[3,4-d]pyrimidin-1-yl)ethyl]-5-chloro-6-cyano-2-ethoxyphenyl}azetidine-1-carboxylate]: at most 10 nM; `CCOc1c(C(C)n2nc(C)c3c(N)ncnc32)cc(Cl)c(C#N)c1C1CN(S(=O)(=O)C2CC2)C1` (single isomer, unassigned) [Example 251, 4-[1-(4-Amino-3-methyl-1H-pyrazolo[3,4-d]pyrimidin-1-yl)ethyl]-6-chloro-2-[1-(cyclopropylsulfonyl)azetidin-3-yl]-3-ethoxybenzonitrile]: at most 10 nM.

Take `COc1c(C(C)n2nc(C)c3c(N)ncnc32)cc(Cl)c(C)c1C1CN(C(=O)c2cnoc2C)C1` (single isomer, unassigned) [Example 120, 1-[1-(5-Chloro-2-methoxy-4-methyl-3-{1-[(5-methylisoxazol-4-yl)carbonyl]azetidin-3-yl}phenyl)ethyl]-3-methyl-1H-pyrazolo[3,4-d]pyrimidin-4-amine]: the IC50 is at most 10 nM. Take `COc1c(C(C)n2nc(C)c3c(N)ncnc32)cc(C#N)c(C)c1-c1cnn(C)c1` (single isomer, unassigned) [Example 209, 5-[1-(4-Amino-3-methyl-1H-pyrazolo[3,4-d]pyrimidin-1-yl)ethyl]-4-methoxy-2-methyl-3-(1-methyl-1H-pyrazol-4-yl)benzonitrile]: the IC50 was 10 to 50 nM. Next, `CCOc1c(C(C)n2nc(C)c3c(N)ncnc32)cc(Cl)c(C#N)c1C1CNC(=O)O1` (single isomer, unassigned) [323 (3rd peak), 4-[1-(4-amino-3-methyl-1H-pyrazolo[3,4-d]pyrimidin-1-yl)ethyl]-6-chloro-3-ethoxy-2-(2-oxo-1,3-oxazolidin-5-yl)benzonitrile]: 50 to 200 nM; `COc1c(C(C)n2nc(C)c3c(N)ncnc32)cc(Cl)c(C)c1C1CN(C(C)C)C1` (single isomer, unassigned) [Example 1, 1-{1-[5-Chloro-3-(1-isopropylazetidin-3-yl)-2-methoxy-4-methylphenyl]ethyl}-3-methyl-1H-pyrazolo[3,4-d]pyrimidin-4-amine bis(trifluoroacetate)]: at most 10 nM. With `CCOc1c(C(C)n2nc(C)c3c(N)ncnc32)cc(Cl)c(C#N)c1C1CN(CC2CCOCC2)C1` (single isomer, unassigned) [Example 232, 4-[1-(4-Amino-3-methyl-1H-pyrazolo[3,4-d]pyrimidin-1-yl)ethyl]-6-chloro-3-ethoxy-2-[1-(tetrahydro-2H-pyran-4-ylmethyl)azetidin-3-yl]benzonitrile] the figure was at most 10 nM; with `CCOc1c(C(C)n2nc(C(F)F)c3c(N)ncnc32)cc(Cl)c(F)c1C1CN(C(C)C)C1` (racemic) [Example 150, 1-{1-[5-Chloro-2-ethoxy-4-fluoro-3-(1-isopropylazetidin-3-yl)phenyl]ethyl}-3-(difluoromethyl)-1H-pyrazolo[3,4-d]pyrimidin-4-amine], at most 10 nM; with `CCOc1c(C(C)n2nc(C)c3c(N)ncnc32)cc(C)c(C#N)c1-c1ccnc(C(=O)N(C)C)c1` (single isomer, unassigned) [Example 340, 4-{3-[1-(4-amino-3-methyl-1H-pyrazolo[3,4-d]pyrimidin-1-yl)ethyl]-6-cyano-2-ethoxy-5-methylphenyl}-N,N-dimethylpyridine-2-carboxamide], at most 10 nM. Next, `CCOc1c(C(C)n2nc(C)c3c(N)ncnc32)cc(Cl)c(C)c1-c1cncc(S(C)(=O)=O)c1` (stereo not shown) [Example 198, 1-(1-(5-chloro-2-ethoxy-4-methyl-3-(5-(methylsulfonyl)pyridin-3-yl)phenyl)ethyl)-3-methyl-1H-pyrazolo[3,4-d]pyrimidin-4-amine]: at most 10 nM; `COc1c(C(C)n2nc(C)c3c(N)ncnc32)cc(Cl)c(C)c1C1CN(C(=O)C2CC2)C1` (single isomer, unassigned) [Example 119, 1-(1-{5-Chloro-3-[1-(cyclopropylcarbonyl)azetidin-3-yl]-2-methoxy-4-methylphenyl}ethyl)-3-methyl-1H-pyrazolo[3,4-d]pyrimidin-4-amine]: at most 10 nM; `CCOc1c(C(C)n2nc(-c3ccncc3)c3c(N)ncnc32)cc(Cl)c(C)c1-c1ccc(C(=O)N(C)C)nc1` (racemic) [Example 60, 5-{3-[1-(4-amino-3-pyridin-4-yl-1H-pyrazolo[3,4-d]pyrimidin-1-yl)ethyl]-5-chloro-2-ethoxy-6-methylphenyl}-N,N-dimethylpyridine-2-carboxamide tris(trifluoroacetate)]: at most 10 nM. For `COc1c(C(C)n2nc(C)c3c(N)ncnc32)cc(Cl)c(F)c1C1CN(CC(C)(C)O)C1` (racemic) [Example 70, 1-(3-{3-[1-(4-Amino-3-methyl-1H-pyrazolo[3,4-d]pyrimidin-1-yl)ethyl]-5-chloro-6-fluoro-2-methoxyphenyl}azetidin-1-yl)-2-methylpropan-2-ol], the IC50 was at most 10 nM. Next, `CCOc1c(C(C)n2nc(C)c3c(N)ncnc32)cc(Cl)c(C#N)c1C1CNC(=O)O1` (single isomer, unassigned) [323 (1st peak), 4-[1-(4-amino-3-methyl-1H-pyrazolo[3,4-d]pyrimidin-1-yl)ethyl]-6-chloro-3-ethoxy-2-(2-oxo-1,3-oxazolidin-5-yl)benzonitrile]: at most 10 nM; `COc1c(C(C)n2nc(C)c3c(N)ncnc32)cc(Cl)c(C#N)c1C1CN(C(=O)C2CC2)C1` (single isomer, unassigned) [Example 284, 4-[1-(4-Amino-3-methyl-1H-pyrazolo[3,4-d]pyrimidin-1-yl)ethyl]-6-chloro-2-[1-(cyclopropylcarbonyl)azetidin-3-yl]-3-methoxybenzonitrile]: at most 10 nM; `CCOc1c(C(C)n2nc(C)c3c(N)ncnc32)cc(Cl)c(C#N)c1C1CN(CCO)C1` (single isomer, unassigned) [Example 219, 4-[1-(4-Amino-3-methyl-1H-pyrazolo[3,4-d]pyrimidin-1-yl)ethyl]-6-chloro-3-ethoxy-2-[1-(2-hydroxyethyl)azetidin-3-yl]benzonitrile]: at most 10 nM. With `COc1c(C(C)n2nc(C)c3c(N)ncnc32)cc(Cl)c(C#N)c1-c1cncc(S(C)(=O)=O)c1` (single isomer, unassigned) [Example 332, 4-[1-(4-amino-3-methyl-1H-pyrazolo[3,4-d]pyrimidin-1-yl)ethyl]-6-chloro-3-methoxy-2-[5-(methylsulfonyl)pyridin-3-yl]benzonitrile] the figure was at most 10 nM. Next, `CCOc1c(C(C)n2nc(CO)c3c(N)ncnc32)cc(Cl)c(C)c1-c1ccc(C(=O)N(C)C)nc1` (racemic) [Example 83, 5-(3-{1-[4-Amino-3-(hydroxymethyl)-1H-pyrazolo[3,4-d]pyrimidin-1-yl]ethyl}-5-chloro-2-ethoxy-6-methylphenyl)-N,N-dimethylpyridine-2-carboxamide bis(trifluoroacetate)]: at most 10 nM.

`CCOC(=O)N1CC(c2c(C#N)c(Cl)cc(C(C)n3nc(C)c4c(N)ncnc43)c2OC)C1` (single isomer, unassigned) [Example 290, Ethyl 3-{3-[1-(4-amino-3-methyl-1H-pyrazolo[3,4-d]pyrimidin-1-yl)ethyl]-5-chloro-6-cyano-2-methoxyphenyl}azetidine-1-carboxylate]: the 50% inhibitory concentration (IC50) is at most 10 nM.
